Measured values: ChEMBL document CHEMBL1130972, “Sugar-substituted 2-azetidinones as cholesterol absorption inhibitors” (1998)

How the values were obtained:
Cricetinae gen. sp. [1] = experiment: Tested for inhibition of serum cholesterol absorption in cholesterol-fed hamsters at a oral dose of 10 mg/Kg/day; assay type: functional, hamster
Cricetinae gen. sp. [2] = experiment: Tested for inhibition of liver cholesterol esters absorption in cholesterol-fed hamsters at a oral dose of 10 mg/Kg/day; assay type: functional, Cricetulus griseus
Cricetinae gen. sp. [3] = experiment: Tested for inhibition of liver cholesterol esters absorption in cholesterol-fed hamsters at a oral dose of 8 mg/Kg/day; assay type: functional, Cricetulus griseus
Cricetinae gen. sp. [4] = experiment: Tested for inhibition of serum cholesterol absorption in cholesterol-fed hamsters at a oral dose of 8 mg/Kg/day; assay type: functional, Cricetulus griseus

Structure (SMILES) | Reduction (Cricetinae gen. sp. [1]) | Reduction (Cricetinae gen. sp. [2]) | Reduction (Cricetinae gen. sp. [3]) | Reduction (Cricetinae gen. sp. [4])
COc1ccc(N2C(=O)[C@H](CCCc3ccccc3)[C@H]2c2ccc(O[C@@H]3O[C@H](CO)[C@@H](O)[C@H](O)[C@H]3O)cc2)cc1 | -29% | -86% | – | –
COc1ccc(N2C(=O)[C@H](CCCc3ccccc3)[C@H]2c2ccc(OC[C@H]3O[C@H](OC)[C@H](O)[C@@H](O)[C@@H]3O)cc2)cc1 | -10% | -48% | – | –
COc1ccc(N2C(=O)[C@H](CCCc3ccccc3)[C@H]2c2ccc(O)cc2)cc1 | -25% | -70% | – | –
COc1ccc(N2C(=O)[C@H](CCCc3ccccc3)[C@H]2c2ccc(O[C@@H]3O[C@H](COCc4ccccc4)[C@@H](OCc4ccccc4)[C@H](OCc4ccccc4)[C@H]3OCc3ccccc3)cc2)cc1 | -9% | -21% | – | –
COc1ccc(N2C(=O)[C@H](CCCc3ccccc3)[C@H]2c2ccc(O[C@@H]3O[C@H](C(=O)O)[C@@H](O)[C@H](O)[C@H]3O)cc2)cc1 | -10% | -9% | – | –
COC(=O)[C@H]1O[C@@H](Oc2ccc([C@@H]3[C@@H](CCCc4ccccc4)C(=O)N3c3ccc(OC)cc3)cc2)[C@H](O)[C@@H](O)[C@@H]1O | – | – | -62% | -23%
COc1ccc([C@@H]2[C@@H](CCCc3ccccc3)C(=O)N2c2ccc(OC)cc2)cc1 [SCH-48461] | -43% | -93% | – | –
